Test results taken from US20120196892A1, “NOVEL CASPASE-2 INHIBITORS” (CHIESI FARMACEUTICI S.p.A., priority 2011, published 2012).

Tests used:
[1] = target: T1, human recombinant caspase-2 (Homo sapiens, UniProt P42575); assay: in vitro caspase-2 inhibition activity (Ac-VDVAD-AMC fluorogenic substrate cleavage); assay type: biochemical; details: for IC50: 30 minutes pre-incubation with inhibitors 0.001 to 2 μM, 200 μM Ac-VDVAD-AMC, read after 2 hours at 37° C., mean of three independent runs, read-out: IC50 (concentration which inhibits 50% of caspase activity); for caspase-2 inhibition activity (in words), comparative compounds: compounds used for comparative purposes, structurally related to TRP601
T1 construct: purchased BIOMOL, Plymouth, Pa., USA
T1 sequence (P42575 170-325 limits assumed): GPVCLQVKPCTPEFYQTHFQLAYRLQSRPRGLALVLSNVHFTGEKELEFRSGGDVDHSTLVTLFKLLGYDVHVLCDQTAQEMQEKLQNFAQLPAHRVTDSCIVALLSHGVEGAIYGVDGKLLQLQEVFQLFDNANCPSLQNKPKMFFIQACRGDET
T1 sequence (P42575 348-452 limits assumed): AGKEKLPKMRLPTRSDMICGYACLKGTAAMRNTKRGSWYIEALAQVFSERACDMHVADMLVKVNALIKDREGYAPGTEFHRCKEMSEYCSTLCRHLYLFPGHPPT
Experimental: The in vitro caspase-2 inhibition activity of 2-quinolinylcarbonyl-(S)-Valinyl-(S)-Aspartyl (methyl ester)-(S)-Valinyl-(S)-Alanyl-(R,S)-Aspartyl (methyl ester) 2,3,5,6-tetrafluorophenyl ester (TRP 701) in comparison to other compounds was evaluated according to the following protocol. Samples of human recombinant caspase-2 (25-50U, BIOMOL, Plymouth, Pa., USA) were pre-incubated for 30 minutes with inhibitors (0.001 to 2 μM) in final 100 μl final assay buffer (50 mM HEPES, pH 7.4, 100 mM NaCI, 0.1% CHAPS, 10 mM DTT, 1 mM EDTA, 10% glycerol) and then mixed with 200 μM of the fluorogenic caspase substrates (BIOMOL) Ac-VDVAD-AMC. An IC50 value corresponding to the concentration which inhibis 50% of caspase activity was determined from the dose-response sigmoid curve using the steady-state fluorescence approach. The cleavage of AMC-based substrate by human recombinant caspase-2 was measured after 2 hours at 37° C. on a fluorescence microplate reader by monitoring emission at 510 nm upon excitation at 405 nm.
Curves are the mean of three independent runs.

[2] = target: T1, human recombinant caspase-2; details: disclosed in WO 2005/105829; cited from earlier work

| caspase-2 selectivity (in words) [1] | caspase-2 inhibition activity (in words), comparative compounds [1] | Compound | IC50 [1] [nM] | caspase-2 selectivity (in words), background statement [2] |
| --- | --- | --- | --- | --- |
| – | – | COC(=O)CC(NC(=O)[C@H](C)NC(=O)[C@@H](NC(=O)[C@H](CC(=O)OC)NC(=O)[C@@H](NC(=O)c1ccc2ccccc2n1)C(C)C)C(C)C)C(=O)COc1c(F)cccc1F (mixture of isomers) [TRP 601, 5-(2,6-difluoro-phenoxy)-3(R,S)-{2(S)-[2(S)-(3-methoxycarbonyl-2(S)-{3-methyl-2(S)-[(quinoline-2-carbonyl)-amino]butyrylamino}-propionylamino)-3-methyl-butyrylamino]-propionylamino}-4-oxo-pentanoic acid methyl ester] | 60 to 90 | selective caspase-2 inhibitor |
| selective caspase-2 inhibitor | – | COC(=O)CC(NC(=O)[C@H](C)NC(=O)[C@@H](NC(=O)[C@H](CC(=O)OC)NC(=O)[C@@H](NC(=O)c1ccc2ccccc2n1)C(C)C)C(C)C)C(=O)COc1c(F)c(F)cc(F)c1F (mixture of isomers) [TRP 701, 5-(2,3,5,6-tetrafluoro-phenoxy)-3(R,S)-{2(S)-[2(S)-(3-methoxycarbonyl-2(S)-{3-methyl-2(S)-[(quinoline-2-carbonyl)-amino]-butyrylamino}-propionylamino)-3-methyl-butyrylamino]-propionylamino}-4-oxo-pentanoic acid methyl ester] | 60 to 90 | – |
| – | inactive | CC(C)[C@H](NC(=O)c1ccc2ccccc2n1)C(=O)O [M3, 2-quinolinylcarbonyl-S-Valine] | – | – |
| – | inactive | quinoline-2-carbonyl-(S)-Val-(S)-Asp(OMe)-(S)-Val-(S)-Ala-(R,S)-Ala((R,S)-CH2OC6H3(2,6-F2)) [TRP 600] | – | – |
